How the values were obtained:
Type in all cases: physicochemical
[1] = Storage stability of insecticide in solvent
Source text: Stability data determined using analytical tools are given below:

Viscosity of solvent = details: at 25 deg. C.
Method: Referring again to Table 5, release rates of 8.0 wt %/wt % Transfluthrin in solvent are strongly correlated to viscosity of solvent. A solvent viscosity of less than or substantially equal to about 4 centistokes (cSt) at 25 Celsius is preferred as release rates stay above 5 mg/hr. Release rates lower than 5 mg/hr require much higher concentration of insecticide (higher insecticidal concentrations lead to thickening of the formula which may become unacceptable to delivery via piezoelectric delivery systems). A solvent viscosity of less than or substantially equal to about 3 cSt is more preferred as this enables the insecticidal concentration(s) to be kept below 10%.

[2] = Release rate and evaporation loss from piezoelectric diffusion device (Table 5); details: for Evaporation Loss: OFF switch position, average of 30 hours; for Evaporation Loss / Release Rate in High Setting: 3 repetitions; for Release Rate in High Setting: ON, high switch setting, average of 13 hours
Source text: A highly permeable wick is used in the diffusion device 20 to ensure easy and effective transfer of the liquid from the tip of the wick to the orifice plate 110. In addition, the plug and wick holder 72 that is fitted to the reservoir 50 includes two small orifices to enable equilibration of pressure between the headspace in the reservoir and the surrounding atmosphere. These design factors lead to slow evaporation of the solvent regardless of where the device 20 is switched on or off. Solvents with high volatility tend to evaporate more rapidly leading to concentration of the insecticide in the reservoir 50. This increases the viscosity of the formula and slows down the overall release rates, leading to a negative impact on product performance. […] [table]

[3] = Release rates over 14 days for solvents with different boiling point ranges (Table 7)
Source text: The effect of solvents with different boiling point ranges on release rates were studied and the results are show in the following Table 7: [table]

[4] = With 8.0 wt %/wt % Transfluthrin in Solvent

Viscosity of Solvent (Viscosity of solvent)	Evaporation Loss as Percent of Release Rate [2, 4]	Evaporation Loss [2, 4]	Release Rate in High Setting [2, 4]	Evaporation Loss as Percent of Release Rate ([2]; With Pure Solvent)	Evaporation Loss ([2]; With Pure Solvent)	Release Rate in High Setting ([2]; With Pure Solvent)	Residual Liquid ([3]; after the 14 days)	Average Release Rate during 1–5 days ([3]; high setting, average period of 7.1 hours per day, days 1–5)	Average Release Rate during 6–10 days ([3]; high setting, average period of 7.1 hours per day, days 6–10)	Average Release Rate during 11–14 days ([3]; high setting, average period of 7.1 hours per day, days 11–14)	Structure (SMILES)	Stability in hydrocarbon solvents (conclusion) [1]
–	–	–	–	–	–	–	–	–	–	–	C/C=C/C1C(C(=O)OCc2c(F)c(F)c(COC)c(F)c2F)C1(C)C (stereo not shown) [Metofluthrin]	stable
–	–	–	–	–	–	–	–	–	–	–	CC1(C)[C@H](C=C(Cl)Cl)[C@H]1C(=O)OCc1c(F)c(F)cc(F)c1F [Transfluthrin]	stable
2.7 cSt	73.1%	16.05 mg/h	22.0 mg/h	38.4%	9.73 mg/h	25.3 mg/h	Zero	19.1 mg/h	18.0 mg/h	10.0 mg/h	CCCOCC(C)O (stereo not shown) [DOWANOL ® PnP]	–
